Read-outs that look alike come from different tables or passages of the source.
Columns and labels:
adipogenesis [1] = conditions: earlier reports, WO 2014/082042 and background; cited from earlier work
dermis of aged rats = assay: Rat dermal skin model of adipogenesis (injection into the dermis of aged rats); type: in vivo; conditions: for adipogenic effects in rat skin: injected into the dermis of aged rats / rat skin
[2] = earlier reports, background and U.S. Pat. No. 6,271,344; cited from earlier work
adipogenesis in vivo = assay: Adipogenesis in vivo, model not specified
pre-adipocyte stem cells = assay: Adipogenic effects in pre-adipocyte stem cells in culture; type: cell-based
adipogenesis [3] = assay: Adipogenic activity of peptides and peptide fragments, assay not specified; type: cell-based
Description: In the second approach, a series of truncations and alanine mutagenesis on peptide B were performed in order to identify the smallest active sequence. Fragments of peptide B were prepared and assayed for adipogenesis. First, fragments corresponding to the two halves of peptide B were prepared (KLKDENS (SEQ ID NO: 8) and SQLKSEVSK (SEQ ID NO: 13)).

[4] = Hyaluronan binding (random phage library screen); conditions: unbiased screen of 15-mer random phage libraries
Description: Two approaches were used to identify additional adipogenic peptides and to identify the key adipogenic sequences. […] Thus, in the first approach, an unbiased screen was performed to identify hyaluronan-binding peptides using 15-mer random phage libraries. Peptide sequences identified in this screen were sorted for: (a) their alignment to the HA binding region of RHAMM, and (b) their lack of alignment to the HA binding region of CD44.

[5] = tested on: mammary fat pads of aged female rats; assay: In vivo adipogenesis in mammary fat pads of aged female rats (microCT); design: species or system rat; conditions: eight-month-old female rats, 100 μg peptide in 100 μl collagen gel, 7 days, versus collagen only
Description: Peptides were also tested for their ability to stimulate adipogenesis in mammary fat pads of aged (8 month old) female rats in vivo. Mammary fat pads are rich in adipocyte progenitor cells.
Eight-month-old female Sprague Dawley rats (retired breeders) were injected with 100 μl collagen gel (Vitrogen) containing 100 μg peptide into the fourth right mammary fat pad, as depicted in FIG. 10. […] The collagen and peptides were injected at the top of the ROI nearest the nipple. The collagen and peptide diffuse into the fat pad following injection and active peptides target RHAMM-positive progenitor cells present in the fat pad. Collagen alone was injected into the fourth left mammary fat pad as a negative control.
Following injection of the collagen and peptide or collagen alone, animals were maintained on rat chow and water for 7 days and then euthanized. Micro-computed tomography (microCT) imaging of the […] was performed on animals using a Locus Ultra scanner (GE Healthcare, London, ON, Canada). The animals were imaged ex vivo with an X-ray tube voltage of 80 kV and a tube current of 55 mA. Nine hundred projections of data were acquired at an angular increment of 0.4 degrees around the rat in an exposure time of 16 ms. The data were then reconstructed into a 3D volume image with a voxel size of 154 μm. The subcutaneous mammary fat measured in 10×5×3 mm rectangular area (the region of interest (ROI)) below the nipple, avoiding measurement of underlying visceral fat (see the region labeled “fat pad” in FIG. 11). The amount of fat in the ROI was calculated as mass (mg) per ROI.

[6] = tested on: bone marrow mesenchymal stem cells; assay: Adipogenesis in mesenchymal stem cells or papillary fibroblasts, replacement of insulin; type: cell-based; conditions: depending upon the screening assay used
Description: For example, in bone marrow mesenchymal stem cells, a maximum adipogenic effect was obtained at 1-5 μg of peptide B (SEQ ID NO: 2), depending upon the screening assay used.

nude guinea pig = assay: Nude guinea pig model of adipogenesis; conditions: in vivo

binding to hyaluronan (HA) [4]	Sequence	adipogenic activity (adipogenesis [1])	adipogenic effects in rat skin (dermis of aged rats)	binding to hyaluronan (HA) [2]	adipogenesis in vivo (adipogenesis in vivo)	adipogenic effects in pre-adipocyte stem cells in culture (pre-adipocyte stem cells)	adipogenesis in tissue culture (adipogenesis [3]; tissue culture)	adipogenesis in vivo in mammary fat pads [5]	fat accumulation (dermis of aged rats; 25-50 μg of peptide per injection site, rat dermal skin model)	amount of peptide giving a maximum adipogenic effect [6] [µg]	promoting adipogenesis in a nude guinea pig model (nude guinea pig)	adipogenic activity (adipogenesis [3]; assay not specified)
hyaluronan binding peptide	STMMSRSHKTRSHHV [peptide P15-1]	is adipogenic	adipogenic effects	bind to hyaluronan	promotes adipogenesis	adipogenic effects	promotes adipogenesis					
	KLKDENSQLKSEVSK (listed as Homo sapiens) [peptide B]	strongly adipogenic	adipogenic effects			adipogenic effects		mammary fat pad enlargement	induced significant fat accumulation	1 to 5	effective in promoting adipogenesis	adipogenic activity
